# Tests used:
# [1] = test system: cell surface receptors of immune cells (ACS); assay: Adsorption of enzyme fragmented dHSA on affinity column with biotinylated cell surface proteins (ACS), MALDI-TOF ms; assay type: binding, human
# Procedure: Based on the observation that immunoregulatory peptide sequences are present in serum albumin, there is the possibility that other sequences than the epitope of mAb A have immunoregulatory function. Therefore an artificial cell surface (ACS) was prepared as described in materials and methods. […]
# To remove unfragmented albumin and enzyme, the sample was ultra filtered through an Amicon Ultra 4 (mw cut-off of 5000) or a Centriplus (mw cut-off 10000) centrifugal filter (Millipore AB, Solna, Sweden). The filtrate, containing fragmented dHSA without enzymes, was collected and diluted with PBS with Ca and Mg (GIBCO).
# Buffy coats generated from 450 ml blood each was collected from 4 healthy donors. Erythrocytes were removed by sedimentation on 2% dextran T500 solution (Amersham Pharmacia Biotech AB, Uppsala Sweden) in 0.9% NaCl. Mononuclear cells (PBMC) were then isolated by Ficoll-Paque Plus (GE Healthcare Bioscience AB Sweden) density gradient centrifugation. The PBMC were then suspended in phosphate buffered saline (PBS) containing Ca and Mg (GIBCO) at a concentration of 10×10^6/ml. EZ Link Sulfo-NHS-biotin (Pierce USA) was added at a final concentration of 0.2 mg/ml and the mixture incubated on a shaker at room temperature for 10 min. Excess biotin was then removed by washing the PBMC in PBS. Biotinylated PBMC were then lysed by adding 1.0 ml ice-cold lysing buffer (50 mM Tris-HCL, pH 7.5, with 0.15 M NaCl, 5 mM MgCl2 containing 100 mM Octyl glucoside and 1 mM Phenylmethylsulfonyl fluoride) per 2×10^7 pelleted cells with gentle shaking, then incubated for 30 min. on ice. Debris was removed by centrifugation at 5000×g at 4° C. for 10 min and the supernatants was collected and pooled from all four donors. The lysate was then stored at −70° C. in polypropylene plastic tubes.
# This amount of lysate corresponds to 36×10^7 mononuclear cells. It was added to a 1 ml Hitrap Streptavidin HP affinity column (Amersham Biosciences). To block possible remaining free biotin, 5 ml of 0.1 M glycine (Sigma) was added to the column. Unsaturated streptavidin on the column was then reacted with 150 ug biotin (Sigma) in binding buffer. The column was carefully washed with PBS and stored in PBS with 0.1% NaN3 at 4° C. until use.
# 27 ml biotinylated cell lysate in binding buffer (corresponding to 54×10^7 mononuclear cells) was added to 1.5 ml washed Streptavidin Sepharose HP (Amersham Biosciences). To block possible remaining free biotin, 25 ml of 0.1 M glycine (Sigma) was added to the Streptavidin Sepharose. Unsaturated streptavidin was then reacted with 225 μg biotin (Sigma) in binding buffer. The Streptavidin Sepharose was carefully washed in PBS. One ml of the biotinylated cell lysate coupled Streptavidin Sepharose was then packed in an empty column (Tricorn Empty High Performance Column, Amersham Bioscience) and washed with phosphate buffered saline (PBS) containing Ca and Mg (GIBCO).
# The flow-through was collected with consideration taken to void volume and dilution of adsorbed sample by collecting in small portions of 0.2 ml. Thirty ul of each sample, including a control sample that has not been adsorbed, were dried in a Speed-Vac centrifuge.
# Dried samples were reconstituted in 10 ul of 0.1% TFA. Zip Tip pipette tips (Millipore, USA) containing C18 reversed-phase media were used for desalting reconstituted samples. […] For the analysis of samples in the mass range 1500-9000 Da, one μl of each Zip Tip eluted sample was mixed with 1 μl of sinapinic acid ([…]). […] Mass identity search of resulting spectra was performed in the SwissProt or NCBI databases using MS-Fit.
# [2] = target: T1, β2-integrin LFA-1 (CD11a) (Homo sapiens, UniProt P20701); assay: Immunocytochemical staining of PBMC and THP-1 with anti-integrin (CD11a) antibody with or without albumin peptides; assay type: binding; conditions: mononuclear blood cells
# T1 construct: endogenous in cells; host or cells: human PBMC (healthy controls, cancer patients) and THP-1 monocytic cell line (ATCC)
# T1 sequence (P20701 26-1170): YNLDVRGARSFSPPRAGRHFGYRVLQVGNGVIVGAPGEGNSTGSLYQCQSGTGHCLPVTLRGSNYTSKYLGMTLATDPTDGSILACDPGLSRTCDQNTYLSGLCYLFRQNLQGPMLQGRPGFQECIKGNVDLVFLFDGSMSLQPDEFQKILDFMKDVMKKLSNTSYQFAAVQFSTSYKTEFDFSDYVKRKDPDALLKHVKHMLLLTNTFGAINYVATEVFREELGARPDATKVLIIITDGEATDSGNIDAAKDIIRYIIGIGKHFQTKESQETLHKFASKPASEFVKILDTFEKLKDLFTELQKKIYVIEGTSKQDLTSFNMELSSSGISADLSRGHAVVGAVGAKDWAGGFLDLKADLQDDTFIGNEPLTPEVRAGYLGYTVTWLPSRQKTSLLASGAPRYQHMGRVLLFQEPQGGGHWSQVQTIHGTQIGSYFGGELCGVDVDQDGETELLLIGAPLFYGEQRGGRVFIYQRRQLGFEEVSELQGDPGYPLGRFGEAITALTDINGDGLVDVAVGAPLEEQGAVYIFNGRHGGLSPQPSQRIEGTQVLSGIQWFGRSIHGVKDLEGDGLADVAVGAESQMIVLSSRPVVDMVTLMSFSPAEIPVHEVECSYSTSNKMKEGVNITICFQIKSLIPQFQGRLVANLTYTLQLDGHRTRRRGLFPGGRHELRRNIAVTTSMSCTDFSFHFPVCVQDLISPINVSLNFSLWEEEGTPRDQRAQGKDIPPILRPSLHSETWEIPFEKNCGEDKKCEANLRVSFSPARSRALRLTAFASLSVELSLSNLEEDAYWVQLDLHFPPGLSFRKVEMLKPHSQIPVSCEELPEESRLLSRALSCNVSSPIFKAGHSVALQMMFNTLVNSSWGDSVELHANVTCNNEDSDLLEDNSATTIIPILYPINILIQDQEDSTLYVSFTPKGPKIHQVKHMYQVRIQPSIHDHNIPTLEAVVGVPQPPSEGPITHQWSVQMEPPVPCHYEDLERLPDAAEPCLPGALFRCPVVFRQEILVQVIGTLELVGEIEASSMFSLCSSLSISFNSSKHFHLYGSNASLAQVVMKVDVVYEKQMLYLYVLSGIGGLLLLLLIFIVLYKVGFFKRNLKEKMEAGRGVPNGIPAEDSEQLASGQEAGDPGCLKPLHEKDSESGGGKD
# T1 sequence (P05107 23-769 partner): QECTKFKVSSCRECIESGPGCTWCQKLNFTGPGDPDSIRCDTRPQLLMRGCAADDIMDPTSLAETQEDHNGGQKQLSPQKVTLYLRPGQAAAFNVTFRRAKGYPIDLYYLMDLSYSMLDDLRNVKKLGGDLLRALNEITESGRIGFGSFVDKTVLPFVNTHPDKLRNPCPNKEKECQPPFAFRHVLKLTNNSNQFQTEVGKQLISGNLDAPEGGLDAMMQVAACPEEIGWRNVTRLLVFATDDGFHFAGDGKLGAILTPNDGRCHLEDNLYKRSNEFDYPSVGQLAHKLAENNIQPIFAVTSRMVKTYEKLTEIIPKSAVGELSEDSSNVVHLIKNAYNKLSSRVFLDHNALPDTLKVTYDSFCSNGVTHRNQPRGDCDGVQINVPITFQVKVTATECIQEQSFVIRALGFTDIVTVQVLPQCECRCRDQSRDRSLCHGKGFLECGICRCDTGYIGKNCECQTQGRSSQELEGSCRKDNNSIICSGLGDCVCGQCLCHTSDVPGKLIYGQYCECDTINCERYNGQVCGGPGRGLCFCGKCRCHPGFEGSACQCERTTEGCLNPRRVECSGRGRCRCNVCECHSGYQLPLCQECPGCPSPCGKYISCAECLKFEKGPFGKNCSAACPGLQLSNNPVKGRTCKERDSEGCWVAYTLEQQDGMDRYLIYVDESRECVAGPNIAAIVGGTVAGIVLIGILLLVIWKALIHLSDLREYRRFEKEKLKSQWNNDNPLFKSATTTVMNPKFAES
# Procedure: Cytospin preparations of mononuclear blood cells from healthy controls, cancer patients and a monocytic cell line, THP-1, were prepared (as described under materials and methods), dried and stored at −70° C. In the immunocytological staining, unspecific staining was blocked by incubation with 10% human AB serum. Some of the slides were preincubated for 60 minutes with albumin peptides at a concentration of 40 μg/ml, added to this 10% AB serum, as indicated in the FIG. 8 A-F. The staining procedure was then continued as described in material and methods. The staining intensity of slides stained with and without preincubation with the peptides was recorded semi quantitatively using a standard light microscope.
# PBMC were separated as described above. Cultured THP-1 cells (obtained from the American Type Culture Collection through LGL Nordic AB, Sweden) were carefully washed and suspended in RPMI1640. PBMC and THP-1 were immediately spun down on pre-cleaned microscope slides in a Shandon Cytospin (Shandon Scientific Ltd, UK) at 1000 RPM for 7 min at 2.5 or 5×10^4 cells per slide. The slides were left to dry at room temperature over night, after which they were wrapped in parafilm and stored at −70° C. Immediately before use, the cytospins were thawed and fixed with acetone for 5 min at room temperature. The cytospins were first blocked with 10% normal human AB-serum with and without albumin peptides (40 ␣g/ml) for 1 h before staining. Primary antibody, consisting of a monoclonal mouse anti-human CD11a (clone HI111, BD Biosciences) diluted in Tris buffered saline (TBS, pH 7.6) at 5 μg/ml (THP-1) or 1 µg/ml (PBMC), was added. The slides were incubated for 30 min and then washed in TBS followed by Envision-Alkaline Phosphatase (Dako Norden A/S, Denmark) for 30 min. After additional washing in TBS, the slides were incubated in alkaline phoshatase substrate consisting of Fast Red TR salt (Sigma), naphtol AS-MX (Sigma) and 5 mM levamisol (Sigma) to block endogenous alkaline phosphatase activity, for 20 min followed by washing in TBS. They were then counterstained in Mayer's haematoxylin for 1 minute and mounted in Glycergel (Dako Norden NS). Monoclonal mouse IgG1 against an irrelevant antigen (Aspergillus niger glukosoxidase, Dako Norden NS) was used as a negative control. All incubations were performed at room temperature in a moist chamber.
# FIG. 24. Inhibition of the binding of anti-LFA-1, mab HI111, to mononuclear blood cells by 3028 peptide and fragments 3325 and 3218. A standard immunohistochemical staining procedure using acetone fixation, 10% human AB-serum for blocking, incubation with HI 111 and a secondary antibody (Ultravision, an alkaline phosphate conjugated polymer attached to Fab-fragments of goat anti-mouse Ig), followed by development with Fast Red. The slides were then mounted in Glycergel. Preincubation with peptides added to the AB serum was as follows: A. No peptide added, B. peptide 3028, C. The C-terminal part (3218), and D. The N-terminal part (3325).
sequence,measurement,setting,value
VFDEFKPLVEEPQNLIK [peptide 3028],Per cent adsorbed,"[1]; Table 5 A, peptides generated by trypsin degradation of dHSA",0.60 Per cent
same,Per cent adsorbed,"[1]; Table 5 B, trypsin peptides selected for synthesis",0.60 Per cent
same,effect on binding of the LFA-1 antibody (HI 111) to LFA-1,[2],Both inhibition (FIG. 24) and enhancement of the binding
